These are literature values, as cited in patent US20260130963A1, “COMPOSITIONS COMPRISING RED YEAST RICE” (Meda Pharma S.p.A., priority 2021, published 2026).

Converted amounts (≈) assume the structure as drawn.

In general, half-life refers to how long it takes for the measured level to halve.

For series [1] the following is noted: in vivo.
For series [2] the following is noted: “low solubility/high permeability”.

Consider `CC[C@H](C)C(=O)O[C@H]1C[C@@H](C)C=C2C=C[C@H](C)[C@H](CC[C@@H]3C[C@@H](O)CC(=O)O3)[C@H]21` [Lovastatin], for which the water solubility is 400 ng/mL (≈ 0.989 µM). Besides, the half-life in series [1] was 1 to 2 h. The BCS classification entry in series [2] was “BCS Class II”.
